Each compound was assayed against T1, human PAH with the R408W mutation (Homo sapiens, UniProt P00439, R408W) (assay: Cell Based Phenylalanine Flux Assay). Settings: A375 cells expressing human R408W PAH; 24 hrs compound incubation; 13C-Tyrosine by LC-MS; average where tested multiple times; read-out: AC50.
T1 construct: expressed in transfected cells
T1 sequence (P00439 1-452 R408W): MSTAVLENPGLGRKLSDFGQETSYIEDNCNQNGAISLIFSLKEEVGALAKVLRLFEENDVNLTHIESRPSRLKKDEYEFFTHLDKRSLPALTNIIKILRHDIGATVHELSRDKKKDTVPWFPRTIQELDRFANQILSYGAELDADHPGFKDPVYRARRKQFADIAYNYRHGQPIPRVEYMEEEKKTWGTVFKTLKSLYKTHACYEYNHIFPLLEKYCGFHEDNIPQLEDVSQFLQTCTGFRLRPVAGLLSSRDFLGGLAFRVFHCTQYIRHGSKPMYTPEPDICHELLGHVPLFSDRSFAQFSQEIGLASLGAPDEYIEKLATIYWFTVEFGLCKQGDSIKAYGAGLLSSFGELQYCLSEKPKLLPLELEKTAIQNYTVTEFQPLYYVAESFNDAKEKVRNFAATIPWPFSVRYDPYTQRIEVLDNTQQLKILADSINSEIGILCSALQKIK
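Also: after compound treatment, cells received sepiapterin plus isotope-labelled Phenylalanine for 4 hours, then labelled Tyrosine in the medium was quantified, 10-point 2-fold dilution series run in duplicate.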

AC50	SMILES
> 5000 nM	Cn1cnc(-c2nnc(C(=O)N3CCc4[nH]cnc4[C@@H]3c3cc4cccc(Cl)n4n3)o2)c1 [Example 1098, (R)-(4-(7-chloropyrazolo[1,5-a]pyridin-2-yl)-6,7-dihydro-1H-imidazo[4,5-c]pyridin-5(4H)-yl)(5-(1-methyl-1H-imidazol-4-yl)-1,3,4-oxadiazol-2-yl)methanone]
500 to 1000 nM	Cn1cnc(-c2nnc(C(=O)N3CCc4[nH]cnc4[C@H]3c3cc4cccc(Cl)n4n3)o2)c1 [Example 1099, (S)-(4-(7-chloropyrazolo[1,5-a]pyridin-2-yl)-6,7-dihydro-1H-imidazo[4,5-c]pyridin-5(4H)-yl)(5-(1-methyl-1H-imidazol-4-yl)-1,3,4-oxadiazol-2-yl)methanone]
500 to 1000 nM	Cn1cc(-c2nnc(C(=O)N3CCc4[nH]cnc4[C@H]3c3cc4ccc(F)cn4n3)o2)cn1 [Example 1100, (S)-(4-(6-fluoropyrazolo[1,5-a]pyridin-2-yl)-6,7-dihydro-1H-imidazo[4,5-c]pyridin-5(4H)-yl)(5-(1-methyl-1H-pyrazol-4-yl)-1,3,4-oxadiazol-2-yl)methanone]
> 5000 nM	Cn1cc(-c2nnc(C(=O)N3CCc4[nH]cnc4[C@@H]3c3cc4ccc(F)cn4n3)o2)cn1 [Example 1101, (R)-(4-(6-fluoropyrazolo[1,5-a]pyridin-2-yl)-6,7-dihydro-1H-imidazo[4,5-c]pyridin-5(4H)-yl)(5-(1-methyl-1H-pyrazol-4-yl)-1,3,4-oxadiazol-2-yl)methanone]
500 to 1000 nM	Cn1ccc(-c2nnc(C(=O)N3CCc4[nH]cnc4[C@H]3c3cc4ccc(F)cn4n3)o2)n1 [Example 1102, (S)-(4-(6-fluoropyrazolo[1,5-a]pyridin-2-yl)-6,7-dihydro-1H-imidazo[4,5-c]pyridin-5(4H)-yl)(5-(1-methyl-1H-pyrazol-3-yl)-1,3,4-oxadiazol-2-yl)methanone]
> 5000 nM	Cn1ccc(-c2nnc(C(=O)N3CCc4[nH]cnc4[C@@H]3c3cc4ccc(F)cn4n3)o2)n1 [Example 1103, (R)-(4-(6-fluoropyrazolo[1,5-a]pyridin-2-yl)-6,7-dihydro-1H-imidazo[4,5-c]pyridin-5(4H)-yl)(5-(1-methyl-1H-pyrazol-3-yl)-1,3,4-oxadiazol-2-yl)methanone]
1000 to 5000 nM	O=C(c1ocnc1C(F)F)N1CCc2[nH]cnc2[C@@H]1c1cc2ccc(C(F)(F)F)cn2n1 [Example 1105, (R)-(4-(difluoromethyl)oxazol-5-yl)(4-(6-(trifluoromethyl)pyrazolo[1,5-a]pyridin-2-yl)-6,7-dihydro-1H-imidazo[4,5-c]pyridin-5(4H)-yl)methanone]
< 500 nM	Cc1nnc(C(=O)N2CCc3[nH]cnc3[C@H]2c2cc3c(Cl)cccn3n2)o1 [Example 1106, (S)-(4-(4-chloropyrazolo[1,5-a]pyridin-2-yl)-6,7-dihydro-1H-imidazo[4,5-c]pyridin-5(4H)-yl)(5-methyl-1,3,4-oxadiazol-2-yl)methanone]
1000 to 5000 nM	Cc1nnc(C(=O)N2CCc3[nH]cnc3[C@@H]2c2cc3c(Cl)cccn3n2)o1 [Example 1107, (R)-(4-(4-chloropyrazolo[1,5-a]pyridin-2-yl)-6,7-dihydro-1H-imidazo[4,5-c]pyridin-5(4H)-yl)(5-methyl-1,3,4-oxadiazol-2-yl)methanone]
> 5000 nM	CC(C)(F)c1nnc(C(=O)N2CCc3[nH]cnc3[C@@H]2c2cc3c(Cl)cccn3n2)o1 [Example 1108, (R)-(4-(4-chloropyrazolo[1,5-a]pyridin-2-yl)-6,7-dihydro-1H-imidazo[4,5-c]pyridin-5(4H)-yl)(5-(2-fluoropropan-2-yl)-1,3,4-oxadiazol-2-yl)methanone]
> 5000 nM	Cc1ccc2cc([C@H]3c4nc[nH]c4CCN3C(=O)c3nnc(C(C)(C)C)o3)nn2c1 [Example 1111, (R)-(5-(tert-butyl)-1,3,4-oxadiazol-2-yl)(4-(6-methylpyrazolo[1,5-a]pyridin-2-yl)-6,7-dihydro-1H-imidazo[4,5-c]pyridin-5(4H)-yl)methanone]
< 500 nM	Cc1ccc2cc([C@@H]3c4nc[nH]c4CCN3C(=O)c3ccnn3C(F)F)nn2c1 [Example 1112, (S)-(1-(difluoromethyl)-1H-pyrazol-5-yl)(4-(6-methylpyrazolo[1,5-a]pyridin-2-yl)-6,7-dihydro-1H-imidazo[4,5-c]pyridin-5(4H)-yl)methanone]
1000 to 5000 nM	Cc1ccc2cc([C@H]3c4nc[nH]c4CCN3C(=O)c3ccnn3C(F)F)nn2c1 [Example 1113, (R)-(1-(difluoromethyl)-1H-pyrazol-5-yl)(4-(6-methylpyrazolo[1,5-a)pyridin-2-yl)-6,7-dihydro-1H-imidazo[4,5-c]pyridin-5(4H)-yl)methanone]
500 to 1000 nM	CC(C)(F)c1nnc(C(=O)N2CCc3[nH]cnc3[C@H]2c2cc3ccc(F)cn3n2)o1 [Example 1114, (S)-(5-(2-fluoropropan-2-yl)-1,3,4-oxadiazol-2-yl)(4-(6-fluoropyrazolo[1,5-a]pyridin-2-yl)-6,7-dihydro-1H-imidazo[4,5-c]pyridin-5(4H)-yl)methanone]
> 5000 nM	O=C(c1nnc(-c2ccn(C(F)F)n2)o1)N1CCc2[nH]cnc2[C@@H]1c1cc2c(Cl)cccn2n1 [Example 1119, (R)-(4-(4-chloropyrazolo[1,5-a]pyridin-2-yl)-6,7-dihydro-1H-imidazo[4,5-c]pyridin-5(4H)-yl)(5-(1-(difluoromethyl)-1H-pyrazol-3-yl)-1,3,4-oxadiazol-2-yl)methanone]
< 500 nM	O=C(c1nnc(-c2cnn(C(F)F)c2)o1)N1CCc2[nH]cnc2[C@H]1c1cc2cccc(Cl)n2n1 [Example 1120, (S)-(4-(7-chloropyrazolo[1,5-a]pyridin-2-yl)-6,7-dihydro-1H-imidazo[4,5-c]pyridin-5(4H)-yl)(5-(1-(difluoromethyl)-1H-pyrazol-4-yl)-1,3,4-oxadiazol-2-yl)methanone]
1000 to 5000 nM	O=C(c1nnc(-c2cnn(C(F)F)c2)o1)N1CCc2[nH]cnc2[C@@H]1c1cc2cccc(Cl)n2n1 [Example 1121, (R)-(4-(7-chloropyrazolo[1,5-a]pyridin-2-yl)-6,7-dihydro-1H-imidazo[4,5-c]pyridin-5(4H)-yl)(5-(1-(difluoromethyl)-1H-pyrazol-4-yl)-1,3,4-oxadiazol-2-yl)methanone]
1000 to 5000 nM	CC(C)(C)c1nnc(C(=O)N2CCc3[nH]cnc3[C@@H]2c2cc3cccc(Cl)n3n2)o1 [Example 1122, (R)-(5-(tert-butyl)-1,3,4-oxadiazol-2-yl)(4-(7-chloropyrazolo[1,5-a]pyridin-2-yl)-6,7-dihydro-1H-imidazo[4,5-c]pyridin-5(4H)-yl)methanone]
< 500 nM	CC(C)(C)c1nnc(C(=O)N2CCc3[nH]cnc3[C@H]2c2cc3cccc(Cl)n3n2)o1 [Example 1123, (S)-(5-(tert-butyl)-1,3,4-oxadiazol-2-yl)(4-(7-chloropyrazolo[1,5-a]pyridin-2-yl)-6,7-dihydro-1H-imidazo[4,5-c]pyridin-5(4H)-yl)methanone]
500 to 1000 nM	CC(C)(C)c1nnc(C(=O)N2CCc3[nH]cnc3[C@H]2c2cc3ccc(F)cn3n2)o1 [Example 1124, (S)-(5-(tert-butyl)-1,3,4-oxadiazol-2-yl)(4-(6-fluoropyrazolo[1,5-a]pyridin-2-yl)-6,7-dihydro-1H-imidazo[4,5-c]pyridin-5(4H)-yl)methanone]
< 500 nM	Cn1nc(C(F)F)nc1C(=O)N1CCc2[nH]cnc2[C@H]1c1cc2ccc(C(F)(F)F)cn2n1 [Example 1126, (S)-(3-(difluoromethyl)-1-methyl-1H-1,2,4-triazol-5-yl)(4-(6-(trifluoromethyl)pyrazolo[1,5-a]pyridin-2-yl)-6,7-dihydro-1H-imidazo[4,5-c]pyridin-5(4H)-yl)methanone]
500 to 1000 nM	Cn1ccc(-c2nnc(C(=O)N3CCc4[nH]cnc4[C@H]3c3cc4ccc(C(F)(F)F)cn4n3)o2)n1 [Example 1128, (S)-(5-(1-methyl-1H-pyrazol-3-yl)-1,3,4-oxadiazol-2-yl)(4-(6-(trifluoromethyl)pyrazolo[1,5-a]pyridin-2-yl)-6,7-dihydro-1H-imidazo[4,5-c]pyridin-5(4H)-yl)methanone]
1000 to 5000 nM	Cn1ccc(-c2nnc(C(=O)N3CCc4[nH]cnc4[C@@H]3c3cc4ccc(C(F)(F)F)cn4n3)o2)n1 [Example 1129, (R)-(5-(1-methyl-1H-pyrazol-3-yl)-1,3,4-oxadiazol-2-yl)(4-(6-(trifluoromethyl)pyrazolo[1,5-a]pyridin-2-yl)-6,7-dihydro-1H-imidazo[4,5-c]pyridin-5(4H)-yl)methanone]
500 to 1000 nM	O=C(c1nnc(C2CC2)o1)N1CCc2[nH]cnc2[C@H]1c1cc2cc(F)ccn2n1 [Example 1130, (S)-(5-cyclopropyl-1,3,4-oxadiazol-2-yl)(4-(5-fluoropyrazolo[1,5-a]pyridin-2-yl)-6,7-dihydro-1H-imidazo[4,5-c]pyridin-5(4H)-yl)methanone]
1000 to 5000 nM	O=C(c1nnc(C2CC2)o1)N1CCc2[nH]cnc2[C@@H]1c1cc2cc(F)ccn2n1 [Example 1131, (R)-(5-cyclopropyl-1,3,4-oxadiazol-2-yl)(4-(5-fluoropyrazolo[1,5-a]pyridin-2-yl)-6,7-dihydro-1H-imidazo[4,5-c]pyridin-5(4H)-yl)methanone]
< 500 nM	O=C(c1ccnn1C(F)F)N1CCc2[nH]cnc2[C@H]1c1cc2cc(C(F)(F)F)ccn2n1 [Example 1132, (S)-(1-(difluoromethyl)-1H-pyrazol-5-yl)(4-(5-(trifluoromethyl)pyrazolo[1,5-a]pyridin-2-yl)-6,7-dihydro-1H-imidazo[4,5-c]pyridin-5(4H)-yl)methanone]

Reference: patent publication US20230365592A1 (Agios Pharmaceuticals, Inc., priority 2022, published 2023)
